Values quoted from earlier work, collected in patent publication EP1001773B1, “ORAL SOLID PHARMACEUTICAL COMPOSITIONS CONTAINING NICORANDIL FOR A MODULATED RELEASE AND THE PROCESS FOR THEIR PREPARATION” (Biomedica Foscama Industria Chimico-Farmaceutica S.p.A., priority 1997, dated 1999).

Conditions: orally administered, conventional tablets; Am.J.Cardiol. 1989, 63, 25J-33J

O=C(NCCO[N+](=O)[O-])c1cccnc1 [Nicorandil, N-(2-hydroxyethyl) nicotinamide nitric ester]
Tmax.: 30 min
